According to patent publication US20200022970A1, “APPLICATION OF LEVOROTATORY TETRAHYDROPALMATINE TO THE TREATMENT OF DEPRESSION DISORDERS, BIPOLAR AND RELATED DISORDERS, MANIC EPISODES AND ANXIETY DISORDERS” (priority 2018, published 2020):
Read-outs that look alike come from different tables or passages of the source.

Experiments:
[1] = system: Male ICR mice; assay: Elevated plus-maze test; type: in vivo; conditions: for time spent in the open arms (anxiolytic effect): 45 minutes prior, 5-minute test; for anxiolysis (time spent in open arms): p<0.001
Description: Elevated plus-maze test. Naive male ICR mice 4 to 6 weeks of age were randomly separated into groups (n=15-20/group). Vehicle (0.9% NaCl), 0.01, 0.05, 0.1, 0.5, 1, 2 and 2.5 mg/kg dl-THP or l-THP, or 1 or 3 mg/kg diazepam was orally administered 45 minutes prior to experiment. The test apparatus consisted of four arms, 25 cm×5 cm each, extended from a center platform of 5 cm×5 cm in the shape of a plus sign. Two of the opposite arms were enclosed by 20 cm opaque high walls, making up the closed arms. The plus maze was elevated 40 cm off the ground. Each mouse was placed onto the center of the maze with head facing an open arm. The frequency and time spent in the open and closed arms were recorded for a period of 5 minutes. An arm entry was recorded when all four paws were inside the arm. Increased number of open-arm entries and percentage of time spent in them are indicative of an anxiolytic effect on the mice (Kalueff and Tuohimaa, 2004; Treit et al., 1993). In addition, the number of closed-arm entries provided an index of locomotor activity (Boguszewski and Zagrodzka, 2002). […] The first group received vehicle (p.o.) 45 minutes prior to test and flumazenil (1.25 mg/kg i.p) 15 minutes prior to test, the second group received l-THP (1.0 mg/kg, p.o) 45 minutes prior to test and vehicle (i.p) 15 minutes prior to test, and the third group received l-THP (1.0 mg/kg p.o) 45 minutes prior to test and flumazenil (1.25 mg/kg i.p) 15 minutes prior to test.

[2] = system: Male ICR mice; assay: Tail suspension test; type: in vivo; conditions: for influence of flumazenil on antidepressant effect (immobility time): 2.0 mg/kg p.o. 45 minutes prior plus flumazenil 1.25 mg/kg i.p. 15 minutes prior; for oral dose that significantly shortens immobility time (antidepressant effect): 45 minutes prior to testing (imipramine 30 minutes), immobility scored from 2 to 6 min
Description: Tail suspension test. Male ICR mice 4 to 6 weeks of age were randomized into groups (n=12-20/group). Vehicle (0.9% NaCl), or one of oral l-THP, dl-THP and d-THP (0.1-5.0 mg/kg) was administered 45 minutes prior to testing; or 30 mg/kg oral imipramine was administered 30 minutes prior to testing. In the test, a mouse was taped to a bar by the tail and suspended 15 cm above ground for 6 minutes. The total time of immobility was scored manually from 2 to 6 min during the period of suspension. Decreased time of immobility is indicative of antidepressant effect (Stem et al, 1985). To test whether the antidepressant effect elicited by l-THP or dl-THP can be blocked by the benzodiazepine (BZ) binding site antagonist flumazenil, naïve male 4-6 week old mice were randomly separated into three groups (n=12-20/group). The first group received vehicle (p.o.) 45 minutes prior to test and flumazenil (1.25 mg/kg i.p) 15 minutes prior to test, the second group received l-THP (2.0 mg/kg, p.o) or dl-THP (2.0 mg/kg, p.o.) 45 minutes prior to test and vehicle (i.p) 15 minutes prior to test, and the third group received l-THP (2.0 mg/kg p.o) or dl-THP (2.0 mg/kg p.o) 45 minutes prior to test and flumazenil (1.25 mg/kg i.p) 15 minutes prior to experiment.

[3] = system: mice; conditions: oral administration; cited from earlier work
[4] = system: Male ICR mice; assay: Locomotor activity side effect test (crossings of infrared beams); type: in vivo; conditions: 3 mg/kg, 45 minutes prior; p<0.05
Description: Manic-like behavior was induced accomplished using the method of Pathak et al. (2015). Male ICR mice of 6 to 7 week were given daily injection of 1.8 mg/kg d-amphetamine (amphetamine-sensitized mice) or vehicle (0.9% NaCl vehicle treated, viz. mice unsensitized by amphetamine) for 5 days. Amphetamine was then withdrawn for 7 days. The locomotor activity test ‘ZIL-2’ apparatus (Beijing Institute of Materia Medica) employed consisted of a transparent plastic cylinder of 20 cm diameter×12 cm height equipped with six evenly spaced sets of infrared beam-photocell. The number of transitions made by the mouse across the beams as detected by the photocells was recorded automatically over a period of 5 minutes. The level of locomotor activity was scored by the number beam-crossings made by the mouse. In the test, amphetamine sensitized mice were randomly separated into groups (m=12-20 per group). The Amp group of mice received 0.9 mg/kg amphetamine injection 10 minutes prior to testing. […]
Male ICR mice of 4 to 6 weeks were randomly separated into groups (n=15-20 per group). […] Locomotor activity was measured based on crossings of infrared beams. […] Myorelaxant activity was measured using the horizontal wire test. […] For each mouse, the number of falls in 60 seconds was recorded.

[5] = system: Male ICR mice; assay: Horizontal wire test (myorelaxant effect); type: in vivo
Description: Male ICR mice of 4 to 6 weeks were randomly separated into groups (n=15-20 per group). Vehicle (0.9% NaCl), 0.01-2.5 mg/kg dl-THP or l-THP, and 1 and 3 mg/kg diazepam were orally administered 45 minutes prior to test. Locomotor activity was measured based on crossings of infrared beams. […] Myorelaxant activity was measured using the horizontal wire test. In this test, mouse was lifted by the tail and allowed to grasp onto a horizontally strung wire (1 mm diameter, 20 cm long and placed 20 cm above the table) with their forepaws and released. For each mouse, the number of falls in 60 seconds was recorded.

[6] = system: amphetamine sensitized mice; assay: Test for antimanic-like behavior: locomotor activity of amphetamine sensitized mice; type: in vivo; conditions: 0.9 mg/kg amphetamine 10 minutes prior
Description: Manic-like behavior was induced accomplished using the method of Pathak et al. (2015). Male ICR mice of 6 to 7 week were given daily injection of 1.8 mg/kg d-amphetamine (amphetamine-sensitized mice) or vehicle (0.9% NaCl vehicle treated, viz. mice unsensitized by amphetamine) for 5 days. Amphetamine was then withdrawn for 7 days. The locomotor activity test ‘ZIL-2’ apparatus (Beijing Institute of Materia Medica) employed consisted of a transparent plastic cylinder of 20 cm diameter×12 cm height equipped with six evenly spaced sets of infrared beam-photocell. The number of transitions made by the mouse across the beams as detected by the photocells was recorded automatically over a period of 5 minutes. The level of locomotor activity was scored by the number beam-crossings made by the mouse. In the test, amphetamine sensitized mice were randomly separated into groups (m=12-20 per group). The Amp group of mice received 0.9 mg/kg amphetamine injection 10 minutes prior to testing. The l-THP groups received oral l-THP (0.05, 0.1 and 0.2 mg/kg) 30 minutes prior to testing, and 0.9 mg/kg amphetamine injection 10 minutes prior to testing. The Veh mice received vehicle orally 30 minutes prior to testing and vehicle injection 10 minutes prior to testing.

[7] = system: female ICR mice; assay: Crawley's sociability and preference for social novelty test (three-chamber box); type: in vivo; conditions: 45 minutes prior
Description: In Crawley's test, female ICR mice of 8 to 10 weeks were randomized into groups (n=12-20/group), and orally administered 45 minutes prior to testing with vehicle (0.9% NaCl), 0.1 mg/kg l-THP or 0.5 mg/kg l-THP. The test apparatus comprised a rectangular, three-chamber box. Each chamber was 19×45 cm, and the dividing walls between chambers were made of clear Plexiglas. The central chamber was connected to each side chamber with a removable wall. Two identical wire cylindrical containers with removable lids that were large enough to hold a single mouse each were placed vertically inside the apparatus, one in the middle of each side chamber. Each of these containers consisted of a cup made of metal wires to allow for air exchange between the interior and exterior of the cylinder but small enough to prevent direct physical interactions between an animal on the inside with one on the outside, and a removable lid. In the beginning of the test, the two cylindrical containers in the two side chambers were empty, and the subject mouse was placed at the center of the middle chamber for adaptation. After 5 minutes, one social-object mouse (stranger-1) was placed inside the cylinder in one of the side chambers. The placement of strange-1 was systematically changed between the two side chambers between trials. Then the walls separating the middle chamber from the two side chambers were removed to allow the subject mouse free access to all three chambers. In a first 10-minute session, the duration and number of direct contacts between the subject mouse and the container cup housing or not housing the stranger-1 mouse were recorded individually. At the end of this session, a second social-object mouse (stranger-2) was placed in the wire container cup that was empty during the first 10-minute session. Then the duration and number of direct contacts between the subject mouse and the two container cups holding stranger-1 mouse and stranger-2 mouse were recorded separately during a second 10-minute session. The first 10-minute session provided an estimate of the sociability of the subject mouse in terms of its preference if any to spend more time with the container holding the stranger-1 mouse compared to the empty container. The second 10-minute session provided an estimate of the preference of the subject mouse for social novelty in terms of its preference if any to associate with the container holding the novel stranger-2 mouse compared to the container holding the more familiar stranger-1 mouse (Moy et al 2004; Kaidanovich-Beilin et al., 2011).

[8] = system: mice; conditions: 6.25, 12.5, and 18.75 mg/kg i.g.; cited from earlier work
[9] = system: rats; conditions: PTSD rats, cited from earlier work
[10] = system: rats; conditions: PTSD rats, cited from earlier work; remark: listed apart in the source
[11] = system: rats; conditions: 10, 20 and 40 mg/kg i.p., mediated by D2 receptors; cited from earlier work
[12] = system: rats; conditions: cited from earlier work

COc1cc2c(cc1OC)[C@@H]1Cc3ccc(OC)c(OC)c3CN1CC2 (racemic) [dl-THP, dl-tetrahydropalmatine]
time spent in the open arms (anxiolytic effect) ([1]; 1.0 mg/kg oral): significant increase in time spent in the open arms
time spent in the open arms (anxiolytic effect) ([1]; 2.0 mg/kg oral): significant increase in time spent in the open arms
lowest oral dose active for anxiolysis [1]: ≥ 1.0 mg/kg
influence of flumazenil on antidepressant effect (immobility time) [2]: inhibition of the antidepressant effects
lowest oral dose eliciting antidepressant effect based on immobility time [2]: ≥ 2.0 mg/kg
oral dose that significantly shortens immobility time (antidepressant effect) [2]: 2.0 to 5.0 mg/kg
anxiolytic effects: entries into open arms without significant change in entries into closed arms [3]: selective anxiolytic effects

CN1C(=O)CN=C(c2ccccc2)c2cc(Cl)ccc21 [Diazepam]
anxiolysis (time spent in open arms) ([1]; diazepam 1 mg/kg): significant anxiolysis
anxiolysis (time spent in open arms) ([1]; diazepam 3 mg/kg): significant anxiolysis
locomotor activity (crossings of infrared beams) [4]: significant decrease
myorelaxant effect (number of falls in 60 seconds) ([5]; 3 mg/kg): significant (p<0.05) myorelaxant effect

CN(C)CCCN1c2ccccc2CCc2ccccc21 [Imipramine]
oral dose that significantly shortens immobility time (antidepressant effect) [2]: 30 mg/kg

COc1cc2c(cc1OC)[C@@H]1Cc3ccc(OC)c(OC)c3CN1CC2 [l-THP, levorotatory tetrahydropalmatine]
level of locomotor activity relative to Amp mice (antimanic effect) ([6]; 0.05 mg/kg oral 30 minutes prior): significantly reduced the level locomotor activity
level of locomotor activity relative to Amp mice (antimanic effect) ([6]; 0.1 mg/kg oral 30 minutes prior): significantly reduced the level locomotor activity
level of locomotor activity relative to Amp mice (antimanic effect) ([6]; 0.2 mg/kg oral 30 minutes prior): significantly reduced the level locomotor activity
preference for social novelty: stranger-2 vs familiar stranger-1 mouse ([7]; 0.1 mg/kg oral, p<0.001): showed preference for the novel stranger-2 mouse
sociability: time with stranger-1 mouse container vs empty container ([7]; 0.1 mg/kg oral, p<0.001): significant enhancement of sociability
preference for social novelty: stranger-2 vs familiar stranger-1 mouse ([7]; 0.5 mg/kg oral, p<0.01): showed preference for the novel stranger-2 mouse
sociability: time with stranger-1 mouse container vs empty container ([7]; 0.5 mg/kg oral, p<0.01): significant enhancement of sociability
time spent in the open arms (anxiolytic effect) ([1]; 0.1 mg/kg oral): significant increase in time spent in the open arms
time spent in the open arms (anxiolytic effect) ([1]; 0.5 mg/kg oral): significant increase in time spent in the open arms
influence of flumazenil on anxiolytic effect (time spent in open arms) ([1]; 1.0 mg/kg p.o. 45 minutes prior plus flumazenil 1.25 mg/kg i.p. 15 minutes prior): inhibition of the anxiolytic effect
time spent in the open arms (anxiolytic effect) ([1]; 2.5 mg/kg oral): significant increase in time spent in the open arms
lowest oral dose active for anxiolysis [1]: ≥ 0.1 mg/kg
locomotor activity [8]: did not affect locomotor activity
myorelaxant effect (number of falls in 60 seconds) ([5]; male, ICR, mouse, in vivo, 45 min): significant (p<0.01) myorelaxant effect
myorelaxant effect (number of falls in 60 seconds) ([5]; mouse, in vivo): did not induce any significant myorelaxant effect
anxiolytic effect based on the elevated plus-maze test ([9]; daily 50 mg/kg i.p.): significant anxiolytic effect
anxiolytic effect based on the elevated plus-maze test ([9]; daily 10 or 20 mg/kg i.p.): not
antidepressant effect based on sucrose intake or immobility time in the forced swimming test ([10]; daily 50 mg/kg i.p.): significant antidepressant effect
antidepressant effect based on sucrose intake or immobility time in the forced swimming test ([10]; daily 10 or 20 mg/kg i.p.): not
influence of flumazenil on antidepressant effect (immobility time) [2]: inhibition of the antidepressant effects
lowest oral dose eliciting antidepressant effect based on immobility time [2]: ≥ 0.5 mg/kg
oral dose that significantly shortens immobility time (antidepressant effect) [2]: 0.5 to 5.0 mg/kg
antinociceptive effects [11]: dose-dependent antinociceptive effects
locomotion ([12]; 3 mg/kg i.p.): failed to do so
locomotion ([12]; 10 mg/kg i.p.): inhibited locomotion
